Measured values: publication PMC8187357 (Communications Biology, 2021)
“And” between values parts separate entries of the source, which are not always exact repeats. Equal values may be shown once.

How the values were obtained:
PD-L2 [1] = target: T1, PD-L2 (Mus musculus, UniProt Q9WUL5); assay: Rescue of PD-L2 mediated inhibition of proliferation, mouse splenocytes; assay type: cell-based; settings: mean ± S.D.; n=2; read-out: Mouse Splenocyte Proliferation Rescue EC50 PD-L2
T1 construct: purchased R&D Systems 1022-PL-100
Method: For all in vitro assays, test agent stock was prepared in water and diluted further in the assay media to achieve test concentrations. Each experimental condition was carried out in triplicates. Percent rescue for a given test compound concentration was calculated by normalizing individual percent test agent proliferation or IFN-γ release values to percent anti-CD3 and anti-CD28 antibodies stimulated proliferation or IFN-γ release.

PD-L2 [2] = target: T1, PD-L2; assay: Rescue of IFN-γ release inhibited by PD-L2, mouse splenocytes; assay type: cell-based; settings: mean ± S.D.; n=2; read-out: Mouse Splenocyte IFN-γ Rescue EC50 PD-L2
Method: The ability of peptides, peptidomimetics, and small molecules were analyzed for their ability to rescue T-cell proliferation or IFN-γ release from the inhibitory activity of PD-L1 or PD-L2 in a splenocyte/PBMC-based functional assay as per the protocols reported in publication. […] For all in vitro assays, test agent stock was prepared in water and diluted further in the assay media to achieve test concentrations. Each experimental condition was carried out in triplicates. Percent rescue for a given test compound concentration was calculated by normalizing individual percent test agent proliferation or IFN-γ release values to percent anti-CD3 and anti-CD28 antibodies stimulated proliferation or IFN-γ release. EC50 values were derived by plotting transformed data into non-linear fit in sigmoidal dose–response curve using GraphPad Prism software (Version 7).

CTLA4 = target: T2, CTLA4 (Homo sapiens, UniProt P16410); assay: CTLA4-B7.1 functional assay (IL-2, Jurkat T cells); assay type: cell-based; settings: for IL2: Jurkat + B7.1 + PHA + CTLA-4 200 ng/mL, replicates
T2 construct: Fc (Ig); purchased R & D systems 325-CT
Method: CA-170 was evaluated for its potential impact on B7.1 mediated immune-inhibitory interaction with CTLA4 by monitoring the rescue of release of IL-2 in the presence of recombinant CTLA4-Ig and B7.1 in T cells stimulated with phytohemagglutinin (PHA). Briefly, Jurkat T cells (0.25 × 10^5 cells/well of a 96-well plate) grown and starved in serum-free RPMI1640 media for 2 h were stimulated with PHA (10 µg/mL) and B7.1 (500 ng/mL) in the presence of recombinant human CTLA4-Ig (200 ng/mL) and different concentrations of CA-170 and cultured for 48 h at 37 °C. After 48 h of cell culture, supernatant was analyzed for IL-2 by ELISA. Anti-CTLA4 antibody and isotypes were used as controls.

[3] = test system: B7.1-CD28 co-stimulatory pathway; assay: CD28-B7.1 functional assay (IL-2, Jurkat T cells); assay type: cell-based, human; settings: for IL2: Jurkat + PHA 5 µg/mL + B7.1 1 µg/mL, replicates
Method: Impact of CA-170 on immunostimulatory interaction was examined in a Jurkat T-cell-based assay in which the ability of B7-1 to induce production of IL-2 was monitored upon stimulation with PHA. Briefly, Jurkat T cells (0.25 × 10^5 cells/well of a 96-well plate) grown and starved in serum-free RPMI1640 media for 2 h were stimulated with PHA (5 µg/mL) and B7.1 (1.0 µg/mL) and different concentrations of CA-170 and cultured for 48 h at 37 °C. After indicated time of incubation, culture supernatant was analyzed for IL-2 by ELISA. Anti-CD28 antibody and isotypes were used as controls.

CT26 colon carcinoma [4] = assay: CT26 model, combination with docetaxel; assay type: in vivo, mouse; settings: for Individual tumor volumes: CA-170 alone, individual animals; for TGI: CT26 in Balb/c mice, 12 days
Method: (§1) Studies in syngeneic models including B16 melanoma metastasis model and CT26 colon carcinoma subcutaneous model were performed as described. For the Docetaxel combination experiment in CT26 model, indicated dosage of docetaxel (Source: Docetere® injection by Dr Reddy’s Laboratories) was dosed intraperitoneally to animals. For the CA-170 combination groups, CA-170 (10 mg/kg/day, oral) was dosed ~10 min after docetaxel. Animal grouping, treatment efficacy assessment and %TGI calculations were performed as mentioned above. For the CT26 experiment with cyclophosphamide, 100 mg/kg of cyclophosphamide was dosed once on day 5 intraperitoneally after cell implantation (first day of dosing for all other groups). Anti-PD1 antibody (Clone J43 from BioXcel) was dosed intraperitoneally at 100 µg/animal once every week.

CT26 colon carcinoma [5] = assay: CT26 model, survival in combination with cyclophosphamide; assay type: in vivo, mouse; settings: CT26
Method: as §1

[6] = test system: Adrenergic α1, α2, β1, β2; assay: CEREP 80 panel binding: Adrenergic; settings: 10 µM
Method: (§2) CEREP 80 panel assay was carried out by Eurofins Cerep Panlabs facility at France. A series of binding assays was carried out to understand the off-target toxicity of CA-170. CA-170 was tested at 10 μM test concentration in duplicates. Compound binding was calculated as a % inhibition of the binding of a radioactively labeled ligand specific for each target. In each experiment the respective reference compound was tested concurrently with CA-170, and the data were compared with historical values determined at Eurofins. The experiment was accepted in accordance with Eurofins validation standard operating procedure. The results are expressed as a percent of control specific binding; (measured specific binding / control specific binding) × 100 and as a percent inhibition of control specific binding; 100−(measured specific binding / control specific binding) × 100 obtained in the presence of CA-170. The IC50 values (concentration causing a half-maximal inhibition of control specific binding) and Hill coefficients (nH) were determined by non-linear regression analysis of the competition curves generated with mean replicate values using Hill equation curve fitting.

[7] = test system: Cholecystokinin CCK1, CCK2; assay: CEREP 80 panel binding: Cholecystokinin; settings: 10 µM
Method: as §2

Histamine H1,H2 = assay: CEREP 80 panel binding: Histamine; settings: 10 µM
Method: as §2

Prostanoid EP4, IP, TP = assay: CEREP 80 panel binding: Prostanoid; settings: 10 µM
Method: as §2

TNFα = assay: CEREP 80 panel binding: Cytokines; settings: 10 µM
Method: as §2

[8] = test system: Neurokinin NK1, NK2, NK3 (antagonist); assay: CEREP 80 panel binding: Neurokinin; settings: 10 µM
Method: as §2

DOP, KOP, MOP, NOP = assay: CEREP 80 panel binding: Opioid & Opioid like; settings: 10 µM
Method: as §2

[9] = test system: broad panel of receptors and enzymes; assay: CEREP 80-panel profiling, whole panel; assay type: binding; settings: CEREP profiling assay
Method: as §2

[10] = Jurkat cells stimulated with PHA + human B7-1

T2 sequence (P16410 with tags, fused parts or gaps limits assumed): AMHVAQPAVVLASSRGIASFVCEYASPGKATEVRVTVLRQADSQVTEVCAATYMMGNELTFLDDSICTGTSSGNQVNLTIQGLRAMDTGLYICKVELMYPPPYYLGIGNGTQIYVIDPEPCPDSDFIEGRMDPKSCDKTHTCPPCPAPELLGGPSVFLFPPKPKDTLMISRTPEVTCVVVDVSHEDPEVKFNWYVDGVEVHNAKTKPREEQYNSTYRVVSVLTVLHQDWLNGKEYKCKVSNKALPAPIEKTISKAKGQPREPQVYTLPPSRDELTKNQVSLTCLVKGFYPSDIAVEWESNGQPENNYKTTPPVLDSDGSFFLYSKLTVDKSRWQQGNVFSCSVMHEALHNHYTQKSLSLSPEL
T1 sequence (Q9WUL5 with tags, fused parts or gaps limits assumed): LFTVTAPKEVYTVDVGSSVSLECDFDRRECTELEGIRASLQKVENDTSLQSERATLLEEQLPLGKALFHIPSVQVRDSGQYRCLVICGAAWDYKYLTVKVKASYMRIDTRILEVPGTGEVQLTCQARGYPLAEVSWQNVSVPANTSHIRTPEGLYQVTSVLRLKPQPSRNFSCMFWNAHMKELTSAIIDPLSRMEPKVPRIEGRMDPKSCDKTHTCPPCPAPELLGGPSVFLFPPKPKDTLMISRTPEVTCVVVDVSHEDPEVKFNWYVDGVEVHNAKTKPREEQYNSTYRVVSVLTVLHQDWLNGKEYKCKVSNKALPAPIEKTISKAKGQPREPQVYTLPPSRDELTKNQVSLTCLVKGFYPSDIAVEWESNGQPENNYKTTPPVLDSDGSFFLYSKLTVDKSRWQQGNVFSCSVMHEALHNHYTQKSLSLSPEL

Compound: C[C@@H](O)[C@H](NC(=O)N[C@@H](CC(N)=O)c1nc([C@@H](N)CO)no1)C(=O)O [CA-170]
- EC50 (PD-L2 [1]): 40.2 nM
- EC50 (PD-L2 [2]): 78.3 nM
- IL2 (CTLA4; 10 nM): 100.732 pg/mL and 119.610 pg/mL and 100.195 pg/mL
- IL2 (CTLA4; 100 nM): 131.122 pg/mL and 123.634 pg/mL and 97.951 pg/mL
- IL2 (CTLA4; 1000 nM): 139.927 pg/mL and 131.366 pg/mL and 108.171 pg/mL
- rescue of IL-2 release inhibited by recombinant hCTLA-4 (in words) (CTLA4; [10]): did not rescue the release of IL-2
- IL2 ([3]; 10 nM): 70.45 pg/mL and 63.796 pg/mL and 63.436 pg/mL
- IL2 ([3]; 100 nM): 83.976 pg/mL and 80.412 pg/mL and 77.892 pg/mL
- IL2 ([3]; 1000 nM): 83.364 pg/mL and 84.022 pg/mL and 79.85 pg/mL
- inhibition of B7-1-mediated IL-2 secretion (in words) [3, 10]: did not inhibit IL-2 secretion
- Individual tumor volumes (CT26 colon carcinoma [4]; day 1 of treatment): 20.16 mm3 and 32.48 mm3 and 34.58 mm3 and 45.49 mm3 and 48.25 mm3 and 58.95 mm3 and 62 mm3 and 77.12 mm3 and 87.62 mm3
- Individual tumor volumes (CT26 colon carcinoma [4]; day 4 of treatment): 46.73 mm3 and 66.38 mm3 and 43.09 mm3 and 70.24 mm3 and 54.41 mm3 and 118.43 mm3 and 93.26 mm3 and 105.24 mm3 and 188.91 mm3
- Individual tumor volumes (CT26 colon carcinoma [4]; day 6 of treatment): 73.66 mm3 and 96.49 mm3 and 125.38 mm3 and 93.3 mm3 and 88 mm3 and 204.79 mm3 and 132.26 mm3 and 118.36 mm3 and 317.89 mm3
- Individual tumor volumes (CT26 colon carcinoma [4]; day 8 of treatment): 84.62 mm3 and 174.68 mm3 and 185.55 mm3 and 147.74 mm3 and 147.76 mm3 and 334.98 mm3 and 214.88 mm3 and 178.28 mm3 and 601.81 mm3
- Individual tumor volumes (CT26 colon carcinoma [4]; day 11 of treatment): 209.65 mm3 and 360.36 mm3 and 315.63 mm3 and 279.2 mm3 and 265.42 mm3 and 706.83 mm3 and 356.89 mm3 and 376.42 mm3 and 728.46 mm3
- TGI (CT26 colon carcinoma [4]; CA-170 10 mg/kg/day single agent): 43%
- TGI (CT26 colon carcinoma [4]; combination CA-170 10 mg/kg and docetaxel 10 mg/kg): 68%
- survival advantage vs vehicle + CTX (in words) (CT26 colon carcinoma [5]; CA-170 3 mg/kg/day + single dose CTX 100 mg/kg): Statistically significant survival advantage
- survival advantage vs vehicle + CTX (in words) (CT26 colon carcinoma [5]; CA-170 10 mg/kg/day + single dose CTX 100 mg/kg): Statistically significant survival advantage
- % Inhibition of Control Specific Binding [6]: ≤ 6%
- % Inhibition of Control Specific Binding [7]: < 0%
- % Inhibition of Control Specific Binding (Histamine H1,H2): < 0%
- % Inhibition of Control Specific Binding (Prostanoid EP4, IP, TP): ≤ 5%
- % Inhibition of Control Specific Binding (TNFα): < 0%
- % Inhibition of Control Specific Binding [8]: ≤ 6%
- % Inhibition of Control Specific Binding (DOP, KOP, MOP, NOP): ≤ 9%
- interaction with panel of receptors and enzymes (in words) [9]: minimal or no interaction
